Among the test systems are RPMI-8226; SN12C; K562; M14; HCT-116; HCT-15; OVCAR-8; SK-MEL-2; NCI-H460; ACHN; SNB-19; SF-539; MOLT-4; SF-295; OVCAR-3; SK-MEL-28; HOP-62; OVCAR-4.
Common to all, as to experiment: NCI-60 cell line screen, 48 h

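Method: 48-hour compound exposure of cells in 96-well plates, five concentrations, linear interpolation of endpoints. Here, GI50 denotes the concentration required for 50% inhibition of growth.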 Calls of active or inactive are those of the source. Cut-off read from the data, not from the text of the source: active = GI50 up to about 1.1 µM and inactive = higher.

We go through 5 compounds from ChEMBL document CHEMBL1201862, “PubChem BioAssay data set” (2004).

Regarding `CO/N=C(/C(=O)Nc1c[n+](CC(=O)[O-])cs1)c1csc(N)n1`, the GI50 was > 100 µM (inactive) in the assay with RPMI-8226; > 100 µM (inactive) with SN12C; > 100 µM (inactive) with K562; > 100 µM (inactive) in the assay with M14; > 100 µM (inactive) in the assay with HCT-116; above 100 µM in the assay with HCT-15. For the same compound, the GI50 in the assay with OVCAR-8, in the assay with SK-MEL-2, with NCI-H460, in the assay on ACHN, in the assay with SNB-19 and in the assay on SF-539 was > 100 µM (inactive) in each case. In addition, the GI50 in the assay on MOLT-4, in the assay on SF-295 and with OVCAR-3 was > 100 µM (inactive) each time.

Take `CCOC(=O)C1=C(C)NC2=C(C(=O)N(c3ccccc3)C2c2ccccc2)C1c1ccccc1` (stereo not given): the GI50 in the assay on RPMI-8226 is 17.1 µM (inactive); with SN12C, 17.9 µM (inactive); in the assay with K562, 29.9 µM (inactive); in the assay with M14, 16.7 µM (inactive); in the assay with HCT-116, 16.9 µM (inactive); in the assay on HCT-15 it was 16 µM. The GI50 is 20.1 µM (inactive) in the assay on OVCAR-8; 17.4 µM (inactive) in the assay on SK-MEL-2; 14.1 µM (inactive) in the assay on ACHN; 17.7 µM (inactive) in the assay with SK-MEL-28; 17.1 µM (inactive) in the assay with HOP-62; 17.8 µM (inactive) in the assay on SF-539. Moreover, the results for the GI50 with MOLT-4, in the assay on SF-295 and in the assay on OVCAR-3 were 19.8 µM (inactive), > 10 µM (inactive) and 12.3 µM (inactive), respectively.

In the case of `Cn1c(O)c(C(=O)Nc2cccs2)c(=O)[nH]c1=S`, the GI50 was 19.5 µM (inactive) with RPMI-8226; 17.7 µM (inactive) in the assay on SN12C; 51.9 µM (inactive) with K562; 23.1 µM (inactive) in the assay with M14; 13.4 µM (inactive) with HCT-116; 12.7 µM in the assay on HCT-15. The GI50 with OVCAR-8 is 14 µM (inactive); in the assay on OVCAR-4, 22.5 µM (inactive); in the assay on SK-MEL-2, 16.4 µM (inactive); in the assay with NCI-H460, 19.4 µM (inactive); with ACHN, 12.9 µM (inactive); in the assay with SNB-19 it was 28.9 µM (inactive). The GI50 in the assay with SK-MEL-28 is 15.1 µM (inactive); with HOP-62 it was 17.4 µM (inactive); in the assay with SF-539, 16.5 µM (inactive); in the assay on MOLT-4, 24.7 µM (inactive); in the assay on SF-295, 15.5 µM (inactive); in the assay on OVCAR-3, 19.9 µM (inactive).

Regarding `N#CC(C(=O)C(=O)Nc1ccccc1)c1ccccc1` (stereo not given), the GI50 with RPMI-8226 is > 100 µM (inactive); in the assay on SN12C, > 100 µM (inactive); in the assay with K562, > 100 µM (inactive); in the assay with M14, > 100 µM (inactive); in the assay on HCT-116 it was > 100 µM (inactive); with HCT-15, above 100 µM. The GI50 with SK-MEL-2, with ACHN, in the assay on SNB-19, in the assay with SK-MEL-28, in the assay on SF-539 and with MOLT-4 was > 100 µM (inactive) throughout. In addition, the GI50 with SF-295 and in the assay with OVCAR-3 was > 100 µM (inactive) throughout.

Take `CCN(/N=C1\CC2C=CCN(C2)C(=O)Cc2c1[nH]c1ccccc21)S(=O)(=O)c1ccc(C)cc1` (stereo not given): the GI50 was 63.1 µM (inactive) in the assay on RPMI-8226; 86.7 µM (inactive) in the assay with SN12C; 71.6 µM (inactive) in the assay on K562; 85.9 µM (inactive) in the assay with HCT-116; 85.9 µM in the assay with HCT-15; 78 µM (inactive) with OVCAR-8. For the same compound, the GI50 with OVCAR-4 was 51.8 µM (inactive); with SK-MEL-2, 88.1 µM (inactive); in the assay with ACHN, > 100 µM (inactive); with SNB-19, 81.8 µM (inactive); with SF-539, > 100 µM (inactive); with MOLT-4 it was 59.4 µM (inactive). In the assay with SF-295, the GI50 is 71.1 µM (inactive).
